Test [1] has as its system Beet Armyworm (Spodoptera exigua, LAPHEG). Kind of test: Bioassay on Beet Armyworm (BAW), 128-well diet tray assay. The format is in vivo. To be noted: 168 h, 50 μg/cm^2 of test molecule on artificial diet, second instar larvae, 25° C., five to seven days, average of eight wells, read-out: BAW % Control (or Mortality) rating. As for the experimental part:
(§1) Certain molecules disclosed in this document were tested against BAW and CL using procedures described in the following examples. In the reporting of the results, the “BAW & CL Rating Table” was used (See Table Section).
Bioassays on BAW were conducted using a 128-well diet tray assay. One to five second instar BAW larvae were placed in each well (3 mL) of the diet tray that had been previously filled with 1 mL of artificial diet to which 50 μg/cm^2 of the test molecule (dissolved in 50 μL of 90:10 acetone-water mixture) had been applied (to each of eight wells) and then allowed to dry. Trays were covered with a clear self-adhesive cover, vented to allow gas exchange, and held at 25° C., 14:10 light-dark for five to seven days. Percent mortality was recorded for the larvae in each well; activity in the eight wells was then averaged. The results are indicated in the table entitled “Table ABC: Biological Results” (See Table Section).

The subject of test [2] is Cabbage Looper (Trichoplusia ni, TRIPNI). The experiment in a line: Bioassay on Cabbage Looper (CL), 128-well diet tray assay. The format is in vivo. To be noted: 168 h, 50 μg/cm^2 of test molecule on artificial diet, second instar larvae, 25° C., five to seven days, average of eight wells, read-out: CL % Control (or Mortality) rating. How it is done:
as §1
Bioassays on CL were conducted using a 128-well diet tray assay. One to five second instar CL larvae were placed in each well (3 mL) of the diet tray that had been previously filled with 1 mL of artificial diet to which 50 μg/cm^2 of the test molecule (dissolved in 50 μL of 90:10 acetone-water mixture) had been applied (to each of eight wells) and then allowed to dry. Trays were covered with a clear self-adhesive cover, vented to allow gas exchange, and held at 25° C., 14:10 light-dark for five to seven days. Percent mortality was recorded for the larvae in each well; activity in the eight wells was then averaged. The results are indicated in the table entitled “Table ABC: Biological Results” (See Table Section).

The term mortality denotes the share of the test organisms that died. In the case of `Cc1ccc(C(C)C)c(N2C(=O)CS/C2=N\C(=O)NCOc2ccc(-c3ncn(-c4ccc(OC(F)(F)F)cc4)n3)cc2)c1` [Compound F1, (Z)-1-(3-(2-isopropyl-5-methylphenyl)-4-oxothiazolidin-2-ylidene)-3-((4-(1-(4-(trifluoromethoxy)phenyl)-1H-1,2,4-triazol-3-yl)phenoxy)methyl)urea], the mortality at 50 µg/cm2 in test [1] and in test [2] was 50 to 100% in each case.

For `COc1ccc(CC(F)(F)F)c(N2C(=O)CS/C2=N\C(=O)NCOc2ccc(-c3ncn(-c4ccc(OC(F)(F)F)cc4)n3)cc2)c1` [Compound F2, (Z)-1-(3-(5-Methoxy-2-(2,2,2-trifluoroethyl)phenyl)-4-oxothiazolidin-2-ylidene)-3-((4-(1-(4-(trifluoromethoxy)phenyl)-1H-1,2,4-triazol-3-yl)phenoxy)methyl)urea], the mortality at 50 µg/cm2 in test [1] and in test [2] was 50 to 100% each time.

As for `Cc1ccc(OCC(F)(F)F)c(N2C(=O)CS/C2=N\C(=O)NCOc2ccc(-c3ncn(-c4ccc(OC(F)(F)F)cc4)n3)cc2)c1` [Compound F23, (Z)-1-(3-(5-Methyl-2-(2,2,2-trifluoroethoxy)phenyl)-4-oxothiazolidin-2-ylidene)-3-((4-(1-(4-(trifluoromethoxy)phenyl)-1H-1,2,4-triazol-3-yl)phenoxy)methyl)urea], the mortality at 50 µg/cm2 in test [1] and in test [2] was 50 to 100% in each case.

Turning to `Cc1ccc(C(C)C)c(N2C(=O)CS/C2=N\C(=O)NC(C)Oc2ccc(-c3ncn(-c4ccc(OC(F)(F)F)cc4)n3)cc2)c1` (stereo not drawn) [Compound F24, (Z)-1-(3-(2-Isopropyl-5-methylphenyl)-4-oxothiazolidin-2-ylidene)-3-(1-(4-(1-(4-(trifluoromethoxy)phenyl)-1H-1,2,4-triazol-3-yl)phenoxy)ethyl)urea], the mortality at 50 µg/cm2 in test [1] and in test [2] was 50 to 100% throughout.

Take `CCOc1ccccc1N1C(=O)CS/C1=N\C(=O)NCOc1ccc(-c2ncn(-c3ccc(OC(F)(F)F)cc3)n2)cc1` [Compound F25, (Z)-1-(3-(2-Ethoxyphenyl)-4-oxothiazolidin-2-ylidene)-3-((4-(1-(4-(trifluoromethoxy)phenyl)-1H-1,2,4-triazol-3-yl)phenoxy)methyl)urea]: the mortality at 50 µg/cm2 in test [1] and in test [2] was 50 to 100% in each case.

Regarding `COC(=O)c1ccc(N2C(=O)CS/C2=N\C(=O)NCOc2ccc(-c3ncn(-c4ccc(OC(F)(F)F)cc4)n3)cc2)c(C)c1` [Compound F26, Methyl (Z)-3-methyl-4-(4-oxo-2-((((4-(1-(4-(trifluoromethoxy)phenyl)-1H-1,2,4-triazol-3-yl)phenoxy)methyl)carbamoyl)imino)thiazolidin-3-yl)benzoate], the mortality at 50 µg/cm2 is 0% in test [1] and 50 to 100% in test [2].

Consider `O=C(/N=C1\SCC(=O)N1c1cccc2c1CCCC2)NCOc1ccc(-c2ncn(-c3ccc(OC(F)(F)F)cc3)n2)cc1` [Compound F27, (Z)-1-(4-Oxo-3-(5,6,7,8-tetrahydronaphthalen-1-yl)thiazolidin-2-ylidene)-3-((4-(1-(4-(trifluoromethoxy)phenyl)-1H-1,2,4-triazol-3-yl)phenoxy)methyl)urea], for which the mortality at 50 µg/cm2 in test [1] and in test [2] was 50 to 100% throughout.

Turning to `CCCCc1ccccc1N1C(=O)CS/C1=N\C(=O)NCOc1ccc(-c2ncn(-c3ccc(OC(F)(F)F)cc3)n2)cc1` [Compound F28, (Z)-1-(3-(2-Butylphenyl)-4-oxothiazolidin-2-ylidene)-3-((4-(1-(4-(trifluoromethoxy)phenyl)-1H-1,2,4-triazol-3-yl)phenoxy)methyl)urea], the mortality at 50 µg/cm2 is 0% in test [1] and 0 to 50% in test [2].

Take `Cc1ccc(F)c(N2C(=O)CS/C2=N\C(=O)NCOc2ccc(-c3ncn(-c4ccc(OC(F)(F)F)cc4)n3)cc2)c1` [Compound F29, (Z)-1-(3-(2-Fluoro-5-methylphenyl)-4-oxothiazolidin-2-ylidene)-3-((4-(1-(4-(trifluoromethoxy)phenyl)-1H-1,2,4-triazol-3-yl)phenoxy)methyl)urea]: the mortality at 50 µg/cm2 in test [1] and in test [2] was 50 to 100% each time.

In the case of `CCc1cccc(C)c1N1C(=O)CS/C1=N\C(=O)NCOc1ccc(-c2ncn(-c3ccc(OC(F)(F)F)cc3)n2)cc1` [Compound F30, (Z)-1-(3-(2-Ethyl-6-methylphenyl)-4-oxothiazolidin-2-ylidene)-3-((4-(1-(4-(trifluoromethoxy)phenyl)-1H-1,2,4-triazol-3-yl)phenoxy)methyl)urea], the mortality at 50 µg/cm2 in test [1] and in test [2] was 50 to 100% in each case.

In the case of `CSC(C)c1ccccc1N1C(=O)CS/C1=N\C(=O)NCOc1ccc(-c2ncn(-c3ccc(OC(F)(F)F)cc3)n2)cc1` (stereo not drawn) [Compound F31, (Z)-1-(3-(2-(1-(methylthio)ethyl)phenyl)-4-oxothiazolidin-2-ylidene)-3-((4-(1-(4-(trifluoromethoxy)phenyl)-1H-1,2,4-triazol-3-yl)phenoxy)methyl)urea], the mortality at 50 µg/cm2 in test [1] and in test [2] was 50 to 100% throughout.

Regarding `COc1ccc(N2C(=O)CS/C2=N\C(=O)NCOc2ccc(-c3ncn(-c4ccc(OC(F)(F)F)cc4)n3)cc2)c(C)c1` [Compound F32, (Z)-1-(3-(4-Methoxy-2-methylphenyl)-4-oxothiazolidin-2-ylidene)-3-((4-(1-(4-(trifluoromethoxy)phenyl)-1H-1,2,4-triazol-3-yl)phenoxy)methyl)urea], the mortality at 50 µg/cm2 in test [1] and in test [2] was 50 to 100% in each case.

These data come from patent publication US11399540B2, “Molecules having pesticidal utility, and intermediates, compositions, and processes, related thereto” (CORTEVA AGRISCIENCE LLC, priority 2017, dated 2022).
